The values that follow come from patent US20060069095A1, “Azole derivatives” (priority 2004, published 2006).

pIC50: −log10 of the molar value.

One test relates to A549 cells. The test can be described thus: MTT assay in A549 cells. Format: cell-based, human. The settings on record: 5 days incubation, 3 μM to 0.15 nM. The procedure:
To further show the activity of the compounds according to this invention, their effects on a […] was evaluated using a standard MTT-assay. MTT (3-(4,5-dimethylthiazol-2-yl)-2,5-diphenyl tetrazolium bromide) is widely used for the quantitative determination of cytotoxic effects or in vitro chemosensitivity of tumor cells. The assay is based on the cleavage of the yellow tetrazolium salt (MTT) to purple formazan crystals by metabolic active cells. For details, see Rubinstein, L. V., et al., J. Natl. Cancer Inst. 82 (1990) 1113-1118.
A549 cells (human lung carcinoma cell line ATTC-No. CCL-185) were cultivated in RPMI (Roswell Park Memorial Institute) 1640 medium with GlutaMAX™ I (Invitrogen, Cat-No. 61870-010), 2,5% Fetal Calf Serum (FCS, Sigma Cat-No. F4135 (FBS)); 100 Units/ml penicillin/100 μg/ml streptomycin (=Pen/Strep from Invitrogen Cat. No. 15140). For the assay the cells were seeded in 384 well plates, 900 cells per well, in the same medium. The next day compounds (dissolved 10 mM in dimethylsulfoxide (DMSO)) were added in various concentrations ranging from 3 μM to 0.15 nM (10 concentrations, 1:3 diluted). After 5 days MTT assay was done mainly according to the instructions of the manufacturer (Cell proliferation kit I, MTT, from Roche Molecular Biochemicals). In brief: MTT labeling reagent (3-(4,5-dimethylthiazol-2-yl)-2,5-diphenyltetrazolium bromide (MTT)) was added to a final concentration of 0.5 mg/ml, added and incubated for 4 hrs at 37° C., 5% CO2. During this incubation time purple formazan crystals are formed. After addition of the solubilization solution (20% Sodium Dodecyl Sulfate (SDS) in 0.02 M HCl) the plates were incubated overnight at 37° C., 5% CO2. After careful mixing plates were measured in Victor 2 scanning multiwell spectrophotometer (Wallac) at 550 nm.
A decrease in number of living cells results in a decrease in the total metabolic activity in the sample. The decrease directly correlates to the amount of purple color resulting from the solubilization of the purple formazan crystals.
• A549: 900 cells in 60 μl per well of 384 well plate (Greiner) • Medium: RPMI 1640, 2.5% FCS, glutamine, Pen/Strep. • Incubate 1 day at 37° C.
Induction: • Dilution of compound in DMSO: 3 μl 10 mM+27 μl DMSO, dilute 1:3 • Add 2 μl of compound dilution row to 95 μl of medium • Add 10 μl of compound dilution to 60 μl medium in test plate resulting in 0.3% DMSO per well • Incubate 120 h (5 days) at 37° C., 5% CO2
Analysis: • Add 7 μl MTT (5 mg/7 ml/well), incubate 4 h at 37° C. • Add 30 μl lysis buffer (20% SDS, 0.04 N HCl) per well • Incubate overnight at 37° C.
Measurement: • Victor 2 scanning multiwell spectrophotometer (Wallac) at 550 nm
Determination of IC50 was done using XL-fit (XLfit software (ID Business Solution Ltd., Guilford, Surrey, UK)).
A general note: Tetrazolium assays rely on reduction of a dye to a coloured formazan, in cell work by metabolically active cells.

The next test concerns A549-Cell-Xenograft. Nature of the test: In vivo assay on tumor inhibition (A549 xenograft). The settings on record: daily dosage of 80 mg/kg, oral, after 23 days of treatment (44 days of experiment), median tumor volume. Also noted: species or system mice. The procedure: In vivo Assay on Tumor Inhibition:
To generate primary tumors, Non-Small-Cell Lung Cancer (NSCLC) (e.g. Calu-3 (ATTC HTB-55) or A549 (ATTC CCL-185)) cells (4-5.0×10^6 in a volume of 100 μl) are injected subcutaneously into the left flank of female SCID beige (Severe Combined Immunodeficient/beige mice available from Charles River, Sulzfeld, Germany) or BALB/c nude (BALB/c Nude Spontaneous Mutant Mice (homozygotes) available from Taconic Europe, Ry, Denmark) mice. The cells are thawed and expanded in vitro before use in the experiment. Mice are assigned to the treatment groups 14-21 days after cell injection. […] The subcutaneous primary tumors are measured twice weekly, starting prior to randomisation, in two dimensions (length and width) using an electronic caliper. The volume of the primary tumor is calculated using the formula: V[mm^3]=(length [mm]×width [mm]×width [mm])/2. In addition, the body weight of all animals is recorded at least twice weekly. […]
In one example of the above procedure, treatment was started on or about the 20th-21st day of the experiment (after cell injection) and the treatment was carried out for 23 days (about 44 days of experiment). In this example, primary tumor volume was calculated according to NCI protocol (TW=½ ab^2, where a and b were long and short diameters of tumor mass in mm). […] Tumor weight was determined by analytic scale at termination (day 44/45). […]

What is called pIC50 is the IC50 on a negative log10 scale, so that one unit is a factor of ten. Read a high pIC50 as a low IC50. For `Cn1nncc1CCCCc1ccc(OCc2coc(/C=C/c3ccc(OC(F)(F)F)cc3)n2)cc1` [Example 1.2, Methyl-5-[4-(4-{2-[(E)-2-(4-trifluoromethoxy-phenyl)-vinyl]-oxazol-4-ylmethoxy}-phenyl)-butyl]-1H-[1,2,3]triazole], the pIC50 with A549 cells is 8.15. Moreover, in the test with A549-Cell-Xenograft, the “Tumor Growth Inhibition (TGI)” value is given as 50%.
Consider `Cc1cc(OCc2coc(/C=C/c3ccc(OC(F)(F)F)cc3)n2)ccc1CCCCc1cnn(C)n1` [Example 3.2, 2-Methyl-4-[4-(2-methyl-4-{2-[(E)-2-(4-trifluoromethoxy-phenyl)-vinyl]-oxazol-4-ylmethoxy}-phenyl)-butyl]-2H-[1,2,3]triazole], for which, in the test with A549-Cell-Xenograft, the “Tumor Growth Inhibition (TGI)” value was found to be 72%.
